# Measured values from publication PMC4763718 (MedChemComm, 2015).
# Target: T1, cyclin G associated kinase (GAK) (Homo sapiens, UniProt O14976)
# T1 sequence (O14976 1-1311): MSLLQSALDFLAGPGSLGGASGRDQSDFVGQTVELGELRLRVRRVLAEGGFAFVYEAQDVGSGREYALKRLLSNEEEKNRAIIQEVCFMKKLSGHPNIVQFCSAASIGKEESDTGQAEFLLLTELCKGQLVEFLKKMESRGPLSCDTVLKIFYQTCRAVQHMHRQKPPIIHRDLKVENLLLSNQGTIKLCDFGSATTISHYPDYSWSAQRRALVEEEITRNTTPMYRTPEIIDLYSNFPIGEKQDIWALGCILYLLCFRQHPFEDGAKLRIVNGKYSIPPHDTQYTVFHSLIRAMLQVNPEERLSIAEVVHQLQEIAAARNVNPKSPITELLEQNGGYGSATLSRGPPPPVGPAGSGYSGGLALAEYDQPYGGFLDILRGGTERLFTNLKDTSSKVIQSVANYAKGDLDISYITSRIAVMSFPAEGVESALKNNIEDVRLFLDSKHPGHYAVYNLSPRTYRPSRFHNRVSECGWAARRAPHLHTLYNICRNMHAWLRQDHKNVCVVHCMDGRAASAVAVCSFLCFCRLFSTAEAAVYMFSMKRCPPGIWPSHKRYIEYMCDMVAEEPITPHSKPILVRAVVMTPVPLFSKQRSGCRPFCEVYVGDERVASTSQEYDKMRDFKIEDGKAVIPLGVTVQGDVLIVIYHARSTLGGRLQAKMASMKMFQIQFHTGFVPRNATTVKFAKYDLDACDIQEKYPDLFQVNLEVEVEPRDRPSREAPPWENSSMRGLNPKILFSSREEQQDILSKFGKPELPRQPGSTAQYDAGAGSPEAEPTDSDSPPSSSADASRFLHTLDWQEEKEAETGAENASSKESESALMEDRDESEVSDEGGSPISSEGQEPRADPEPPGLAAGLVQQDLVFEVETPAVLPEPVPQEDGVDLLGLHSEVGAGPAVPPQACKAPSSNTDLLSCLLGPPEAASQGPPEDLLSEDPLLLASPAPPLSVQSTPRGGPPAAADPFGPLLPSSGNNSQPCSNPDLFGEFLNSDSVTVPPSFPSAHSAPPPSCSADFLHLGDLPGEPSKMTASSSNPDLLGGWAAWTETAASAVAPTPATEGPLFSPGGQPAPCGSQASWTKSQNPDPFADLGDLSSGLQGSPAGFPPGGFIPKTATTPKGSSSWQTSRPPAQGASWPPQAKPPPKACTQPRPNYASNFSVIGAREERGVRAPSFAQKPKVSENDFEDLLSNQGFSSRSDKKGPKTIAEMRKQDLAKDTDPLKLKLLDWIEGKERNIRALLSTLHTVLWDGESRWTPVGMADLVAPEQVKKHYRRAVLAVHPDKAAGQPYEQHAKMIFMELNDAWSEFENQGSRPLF
# Assay: KINOMEscan competition binding assay
row,SMILES,GAK affinity (in words)
1,COc1ccc(-c2cnc3c(NC(=O)C4CC=CC4)snc3c2)cc1OC [Compound 5g],reduced the affinity to GAK
2,COc1ccc(-c2cnc3c(NC(=O)C4CCCCCC4)snc3c2)cc1OC [Compound 5h],reduced the affinity to GAK
3,COc1ccc(-c2cnc3c(NC(=O)C4CCOCC4)snc3c2)cc1OC [Compound 5i],reduced the affinity to GAK
4,COc1ccc(-c2cnc3c(N4CCN(C(C)C)CC4)snc3c2)cc1OC [Compound 8l],did not lead to any improvement in GAK affinity
5,CCCCN1CCN(c2snc3cc(-c4ccc(OC)c(OC)c4)cnc23)CC1 [Compound 8m],did not lead to any improvement in GAK affinity
6,COc1ccc(-c2cnc3c(N4CCN(c5ccncc5)CC4)snc3c2)cc1OC [Compound 8n],did not lead to any improvement in GAK affinity

# Next, values leading:
row,GAK affinity (in words),SMILES
1,completely abolished GAK affinity,CCCCCOc1snc2cc(-c3ccc(OC)c(OC)c3)cnc12 [Compound 8e]
2,inactive,COc1ccc(-c2cnc3c(N4CCN(C(=O)c5ccccc5)CC4)snc3c2)cc1OC [Compound 8q]

# Tested on: J6/JFH(p7-Rluc2A) HCV
# Assay: not given
# Format: cell-based, hepatitis C virus
row,SMILES,effect on HCV replication (in words)
1,CC(C)Oc1snc2cc(-c3ccsc3)cnc12 [Compound 8j],minimal to no effect
